Results reported in US7217729B2, “Substituted indoles, process for the production thereof and use thereof for combatting pain” (Grunenthal GmbH, priority 2001, dated 2007).

system: Male NMRI mice; assay: phenylquinone-induced writhing in mice (analgesic testing by writhing test); assay type: in vivo; details: 10 mg/kg i.v., phenylquinone i.p. 10 minutes after compound, writhing counted 5–20 minutes after phenylquinone
Experimental: The investigation into the analgesic efficacy of the compounds according to the invention was performed by phenylquinone-induced writhing in mice, modified after I. C. Hendershot, J. Forsaith, J. Pharmacol. Exp. There. 125, 237240 (1959). The corresponding literature description is hereby introduced as a reference and is deemed to be part of the disclosure.
Male NMRI mice weighing from 25–30 g were used for this purpose. Groups of 10 animals per compound dose received, 10 minutes after intravenous administration of the compounds tested, 0.3 ml/mouse of a 0.02% aqueous solution of phenylquinone (phenylbenzoquinone, Sigma, Deisenhofen; solution prepared with addition of 5% of ethanol and stored in a water bath at 45° C.) administered intraperitoneally. The animals were then placed individually in observation cages. A push button counter was used to record the number of pain-induced stretching movements (writhing reactions=straightening of the torso with stretching of the rear extremities) for 5–20 minutes after phenylquinone administration. The control was provided by animals which received only physiological common salt solution with phenylquinone.
The compounds according to the invention were tested at the standard dosage of 10 mg/kg. The percentage inhibition (% inhibition) of the writhing reactions by a compound was calculated according to the following formula: […]
Analgesic Testing by Writhing Test in Mice
The in-depth investigation into the analgesic efficacy of the compounds according to the invention was performed using phenylquinone-induced writhing in mice, as described above.

Molecule	% inhibition of writhing reactions
COc1cccc(C2(O)CCC(NCc3c(C(=O)O)[nH]c4cc(Cl)cc(Cl)c34)CC2CN(C)C)c1 (stereo not shown) [Compound 3, 4,6-Dichloro-3-{[3′-(N,N-dimethylaminomethyl)-4′-hydroxy-4′-(3″-methoxyphenyl)-cyclohexylamino]-methyl}-1H-indole 2-carboxylic acid]	72%
CCOC(=O)c1c(CNC2CCC(O)(c3cccc(OC)c3)C(CN(C)C)C2)c2c(Cl)cc(Cl)cc2n1C(=O)OC(C)(C)C (stereo not shown) [Compound 4]	100%
CCOC(=O)c1[nH]c2cc(Cl)cc(Cl)c2c1CNC1CCC(O)(c2cccc(OC)c2)C(CN(C)C)C1 (stereo not shown) [Compound 2, 4,6-Dichloro-3-{[3′-(N,N-dimethylaminomethyl)-4′-hydroxy-4′-(3″-methoxyphenyl)-cyclohexylamino]-methyl}-1H-indole 2-carboxylic acid ethyl ester]	97%
5-Chloro-3-{[3′-(N,N-dimethylaminomethyl)-4′-hydroxy-4′-(3″-methoxyphenyl)-cyclohexylamino]-methyl}-1H-indole 2-carboxylic acid ester [Compound 1]	48%
